For 25 compounds, melting point and IC50 results are on record in patent publication US9593108B2, “Compounds and methods for antiviral treatment” (PTC Therapeutics, Inc., priority 2009, dated 2017).

As a reminder, the melting point is the temperature, or range, at which the solid turns liquid. As usually defined, the IC50 is the midpoint of a concentration-inhibition curve.

Each structure is given as a SMILES string.

Series [1] concerns HCV replicon RNA (GenBank Accession No. AJ242654). Briefly: HCV Replicon Assay (replicon RNA reduction and/or Fluc reporter signal). In kind it is cell-based, Hepatitis C virus. Particulars: Hepatitis C virus, 72 h, replicon-containing cells cultured with test compound for up to 3 days. The gist of the method: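 Bicistronic replicon-containing cells cultured with compound for up to 3 days, with interferon as positive control. Inhibition quantified by replicon RNA reduction and/or Fluc reporter signal; IC50 values generally derived from replicon RNA reduction.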
(In antiviral work, replicon cells carry a viral genome segment that copies itself.)

`C[C@H](NS(=O)(=O)c1ccc(-c2c(C#N)c3cccnc3n2C2CCCC2)nc1)C(F)(F)F` [Cpd 221, 6-(3-cyano-1-cyclopentyl-1H-pyrrolo[2,3-b]pyridin-2-yl)-N-[(2S)-1,1,1-trifluoropropan-2-yl]pyridine-3-sulfonamide]: the melting point lay within 157 to 159 °C. Further, the IC50 in series [1] is less than 500 nM.
For `C[C@H](NS(=O)(=O)c1ccc(-c2c(C#N)c3cc(C4CC4)ncc3n2C2CCC2)nc1)C(F)(F)F` [Cpd 223, 6-(3-cyano-1-cyclobutyl-5-cyclopropyl-1H-pyrrolo[2,3-c]pyridin-2-yl)-N-[(2S)-1,1,1-trifluoropropan-2-yl]pyridine-3-sulfonamide] the same measures were 200 to 205 °C and 500 to 2000 nM.
In the case of `C[C@H](NS(=O)(=O)c1ccc(-c2c(C#N)c3cc(C4CC4)ncc3n2C2CCC2)cc1)C(F)(F)F` [Cpd 224, 4-(3-cyano-1-cyclobutyl-5-cyclopropyl-1H-pyrrolo[2,3-c]pyridin-2-yl)-N-[(2S)-1,1,1-trifluoropropan-2-yl]benzenesulfonamide], the melting point was 190 to 195 °C. In addition, in series [1], the IC50 is less than 500 nM.
As for `COc1cnc2c(c1)c(C(N)=O)c(-c1ccc(S(=O)(=O)N[C@@H](C)C(F)(F)F)cn1)n2C1CCC1` [Cpd 226, 1-cyclobutyl-5-methoxy-2-(5-{[(2S)-1,1,1-trifluoropropan-2-yl]sulfamoyl}pyridin-2-yl)-1H-pyrrolo[2,3-b]pyridine-3-carboxamide], the melting point fell in the range of 233 to 235 °C. This compound also came in with an IC50 in series [1] of less than 500 nM.
For `C[C@H](NS(=O)(=O)c1ccc(-c2c(C#N)c3cc(C(F)(F)F)cnc3n2C2CCC2)nc1)C(F)(F)F` [Cpd 227, 6-[3-cyano-1-cyclobutyl-5-(trifluoromethyl)-1H-pyrrolo[2,3-b]pyridin-2-yl]-N-[(2S)-1,1,1-trifluoropropan-2-yl]pyridine-3-sulfonamide] the same measures were 183 to 185 °C and less than 500 nM.
For `C[C@@H](NS(=O)(=O)c1ccc(-c2c(C#N)c3cc(C(F)(F)F)cnc3n2C2CCC2)nc1)C(F)(F)F` [Cpd 228, 6-[3-cyano-1-cyclobutyl-5-(trifluoromethyl)-1H-pyrrolo[2,3-b]pyridin-2-yl]-N-[(2R)-1,1,1-trifluoropropan-2-yl]pyridine-3-sulfonamide] the same measures were 190 to 192 °C and less than 500 nM.
For `C[C@H](NS(=O)(=O)c1ccc(-c2c(C#N)c3cc(C(F)(F)F)cnc3n2C2CCCC2)nc1)C(F)(F)F` [Cpd 229, 6-[3-cyano-1-cyclopentyl-5-(trifluoromethyl)-1H-pyrrolo[2,3-b]pyridin-2-yl]-N-[(2S)-1,1,1-trifluoropropan-2-yl]pyridine-3-sulfonamide] the same measures were 205 to 207 °C and less than 500 nM.
Regarding `C[C@@H](NS(=O)(=O)c1ccc(-c2c(C#N)c3cc(C(F)(F)F)cnc3n2C2CCCC2)nc1)C(F)(F)F` [Cpd 230, 6-[3-cyano-1-cyclopentyl-5-(trifluoromethyl)-1H-pyrrolo[2,3-b]pyridin-2-yl]-N-[(2R)-1,1,1-trifluoropropan-2-yl]pyridine-3-sulfonamide], the melting point is 208 to 210 °C. Besides, the IC50 in series [1] was less than 500 nM.
The compound `CC[C@H](NS(=O)(=O)c1ccc(-c2c(C#N)c3cc(OC)cnc3n2C2CCC2)nc1)C(F)(F)F` [Cpd 232, 6-(3-cyano-1-cyclobutyl-5-methoxy-1H-pyrrolo[2,3-b]pyridin-2-yl)-N-[(2S)-1,1,1-trifluorobutan-2-yl]pyridine-3-sulfonamide] yielded a melting point of 186 to 191 °C. The same compound yielded an IC50 in series [1] of less than 500 nM.
For `CC[C@H](NS(=O)(=O)c1ccc(-c2c(C#N)c3cc(Cl)cnc3n2C2CCCC2)nc1)C(F)(F)F` [Cpd 233, 6-(5-chloro-3-cyano-1-cyclopentyl-1H-pyrrolo[2,3-b]pyridin-2-yl)-N-[(2S)-1,1,1-trifluorobutan-2-yl]pyridine-3-sulfonamide], in that order: 180 to 185 °C and less than 500 nM.
As to `C[C@H](NS(=O)(=O)c1ccc(-c2c(C#N)c3ncc(Cl)cc3n2C2CCC2)nc1)C(F)(F)F` [Cpd 234, 6-(6-chloro-3-cyano-1-cyclobutyl-1H-pyrrolo[3,2-b]pyridin-2-yl)-N-[(2S)-1,1,1-trifluoropropan-2-yl]pyridine-3-sulfonamide], the melting point was 201 to 205 °C. In series [1], the IC50 was less than 500 nM.
For `C[C@H](NS(=O)(=O)c1ccc(-c2c(C#N)c3ncc(Cl)cc3n2C2CCC2)cc1)C(F)(F)F` [Cpd 235, 4-(6-chloro-3-cyano-1-cyclobutyl-1H-pyrrolo[3,2-b]pyridin-2-yl)-N-[(2S)-1,1,1-trifluoropropan-2-yl]benzenesulfonamide], in that order: 205 to 210 °C and 500 to 2000 nM.
For `COc1cnc2c(c1)c(C#N)c(-c1ccc(S(=O)(=O)N[C@@H](C)C(F)(F)F)c[n+]1[O-])n2C1CCC1` [Cpd 236, 6-(3-cyano-1-cyclobutyl-5-methoxy-1H-pyrrolo[2,3-b]pyridin-2-yl)-N-[(2S)-1,1,1-trifluoropropan-2-yl]pyridine-3-sulfonamide 1-oxide] the same measures were 155 to 157 °C and 2000 to 5000 nM.
As for `C[C@H](NS(=O)(=O)c1ccc(-c2c(C#N)c3cc(-c4cccs4)cnc3n2C2CCC2)nc1)C(F)(F)F` [Cpd 237, 6-[3-cyano-1-cyclobutyl-5-(thiophen-2-yl)-1H-pyrrolo[2,3-b]pyridin-2-yl]-N-[(2S)-1,1,1-trifluoropropan-2-yl]pyridine-3-sulfonamide], the melting point lay within 206 to 208 °C. Also, the IC50 in series [1] lay in the range of 2000 to 5000 nM.
For `C[C@@H](NS(=O)(=O)c1ccc(-c2c(C#N)c3cc(-c4cccs4)cnc3n2C2CCC2)nc1)C(F)(F)F` [Cpd 238, 6-[3-cyano-1-cyclobutyl-5-(thiophen-2-yl)-1H-pyrrolo[2,3-b]pyridin-2-yl]-N-[(2R)-1,1,1-trifluoropropan-2-yl]pyridine-3-sulfonamide] the same measures were 198 to 199 °C and 2000 to 5000 nM.
Regarding `C[C@H](NS(=O)(=O)c1ccc(-c2c(C#N)c3cc(N4CCCC4)cnc3n2C2CCC2)nc1)C(F)(F)F` [Cpd 239, 6-[3-cyano-1-cyclobutyl-5-(pyrrolidin-1-yl)-1H-pyrrolo[2,3-b]pyridin-2-yl]-N-[(2S)-1,1,1-trifluoropropan-2-yl]pyridine-3-sulfonamide], the melting point fell in the range of 207 to 209 °C. Besides, in series [1], the IC50 is 500 to 2000 nM.
For `C[C@@H](NS(=O)(=O)c1ccc(-c2c(C#N)c3cc(N4CCCC4)cnc3n2C2CCC2)nc1)C(F)(F)F` [Cpd 240, 6-[3-cyano-1-cyclobutyl-5-(pyrrolidin-1-yl)-1H-pyrrolo[2,3-b]pyridin-2-yl]-N-[(2R)-1,1,1-trifluoropropan-2-yl]pyridine-3-sulfonamide], in that order: 207 to 209 °C and 500 to 2000 nM.
In turn, `COc1cc2c(C#N)c(-c3ccc(S(=O)(=O)N[C@@H](C)C(F)(F)F)cn3)n(C3CCC3)c2nc1C` [Cpd 242, 6-(3-cyano-1-cyclobutyl-5-methoxy-6-methyl-1H-pyrrolo[2,3-b]pyridin-2-yl)-N-[(2S)-1,1,1-trifluoropropan-2-yl]pyridine-3-sulfonamide] registered a melting point of 175 to 177 °C. The same compound showed an IC50 in series [1] of less than 500 nM.
For the compound `COc1cc2c(C#N)c(-c3ccc(S(=O)(=O)N[C@H](C)C(F)(F)F)cn3)n(C3CCC3)c2nc1C` [Cpd 243, 6-(3-cyano-1-cyclobutyl-5-methoxy-6-methyl-1H-pyrrolo[2,3-b]pyridin-2-yl)-N-[(2R)-1,1,1-trifluoropropan-2-yl]pyridine-3-sulfonamide], the melting point lay within 175 to 177 °C. In series [1], this compound gave an IC50 of 2000 to 5000 nM.
Compound `CC(C)NS(=O)(=O)c1ccc(-c2c(C#N)c3cc(C(F)(F)F)cnc3n2C2CCC2)nc1` [Cpd 244, 6-[3-cyano-1-cyclobutyl-5-(trifluoromethyl)-1H-pyrrolo[2,3-b]pyridin-2-yl]-N-(propan-2-yl)pyridine-3-sulfonamide] had a melting point of 186 to 187 °C. Moreover, the IC50 in series [1] was less than 500 nM.
Regarding `CCCS(=O)(=O)Nc1ccc(-c2c(C#N)c3cc(C(F)(F)F)cnc3n2C2CCC2)cc1` [Cpd 247, N-{4-[3-cyano-1-cyclobutyl-5-(trifluoromethyl)-1H-pyrrolo[2,3-b]pyridin-2-yl]phenyl}propane-1-sulfonamide], the melting point was 180 to 181 °C. The compound further yielded an IC50 in series [1] of 500 to 2000 nM.
Compound `COc1cnc2c(c1)c(C#N)c(-c1ccc(S(=O)(=O)N[C@@H](C)C(F)(F)F)cn1)n2C1CCCC1` [Cpd 248, 6-(3-cyano-1-cyclopentyl-5-methoxy-1H-pyrrolo[2,3-b]pyridin-2-yl)-N-[(2S)-1,1,1-trifluoropropan-2-yl]pyridine-3-sulfonamide] showed a melting point of 178 to 180 °C. This compound gave a concentration for half-maximal inhibition (IC50) in series [1] of less than 500 nM.
For `C[C@@H](NS(=O)(=O)c1ccc(-c2c(C#N)c3cc(C4CC4)cnc3n2C2CCCC2)nc1)C(F)(F)F` [Cpd 249, 6-(3-cyano-1-cyclopentyl-5-cyclopropyl-1H-pyrrolo[2,3-b]pyridin-2-yl)-N-[(2R)-1,1,1-trifluoropropan-2-yl]pyridine-3-sulfonamide], in that order: 155 to 164 °C and 500 to 2000 nM.
Compound `C[C@H](NS(=O)(=O)c1ccc(-c2c(C#N)c3cc(C4CC4)cnc3n2C2CCCC2)nc1)C(F)(F)F` [Cpd 250, 6-(3-cyano-1-cyclopentyl-5-cyclopropyl-1H-pyrrolo[2,3-b]pyridin-2-yl)-N-[(2S)-1,1,1-trifluoropropan-2-yl]pyridine-3-sulfonamide] returned a melting point of 157 to 167 °C. This compound also returned an IC50 in series [1] of less than 500 nM.
The compound `Cc1cnc2c(c1)c(C#N)c(-c1ccc(S(=O)(=O)N[C@H](C)C(F)(F)F)cn1)n2C1CCCC1` [Cpd 254, 6-(3-cyano-1-cyclopentyl-5-methyl-1H-pyrrolo[2,3-b]pyridin-2-yl)-N-[(2R)-1,1,1-trifluoropropan-2-yl]pyridine-3-sulfonamide] came in with a melting point of 155 to 162 °C. For the same compound, in series [1], the IC50 is less than 500 nM.
